Results published in patent publication US20250114345A1, “COMPOUNDS AND COMPOSITIONS AS CBP/P300 DEGRADERS AND USES THEREOF” (Oncopia Therapeutics, Inc. d/b/a/ SK Life Science Labs, priority 2023, published 2025).

Biological target: T1, p300 (Homo sapiens, UniProt Q09472)
T1 construct: host or cells: A549 P300 HiBit cells
Assay: P300 degradation, HiBit technology in A549 P300 HiBit cells (2 h)
Type: cell-based
Conditions: 2 hrs post treatment; for Dmax: A549, A549 P300 HiBit cells; for DC50: A549 P300 HiBit cells
How it was run: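 Degradation potency and Dmax came from HiBiT luminescence in tagged A549 cells treated with serially diluted compound (DMSO stocks at 10 mM) after overnight equilibration in F-12K with 10% heat-inactivated FBS.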

T1 sequence (Q09472 whole entry): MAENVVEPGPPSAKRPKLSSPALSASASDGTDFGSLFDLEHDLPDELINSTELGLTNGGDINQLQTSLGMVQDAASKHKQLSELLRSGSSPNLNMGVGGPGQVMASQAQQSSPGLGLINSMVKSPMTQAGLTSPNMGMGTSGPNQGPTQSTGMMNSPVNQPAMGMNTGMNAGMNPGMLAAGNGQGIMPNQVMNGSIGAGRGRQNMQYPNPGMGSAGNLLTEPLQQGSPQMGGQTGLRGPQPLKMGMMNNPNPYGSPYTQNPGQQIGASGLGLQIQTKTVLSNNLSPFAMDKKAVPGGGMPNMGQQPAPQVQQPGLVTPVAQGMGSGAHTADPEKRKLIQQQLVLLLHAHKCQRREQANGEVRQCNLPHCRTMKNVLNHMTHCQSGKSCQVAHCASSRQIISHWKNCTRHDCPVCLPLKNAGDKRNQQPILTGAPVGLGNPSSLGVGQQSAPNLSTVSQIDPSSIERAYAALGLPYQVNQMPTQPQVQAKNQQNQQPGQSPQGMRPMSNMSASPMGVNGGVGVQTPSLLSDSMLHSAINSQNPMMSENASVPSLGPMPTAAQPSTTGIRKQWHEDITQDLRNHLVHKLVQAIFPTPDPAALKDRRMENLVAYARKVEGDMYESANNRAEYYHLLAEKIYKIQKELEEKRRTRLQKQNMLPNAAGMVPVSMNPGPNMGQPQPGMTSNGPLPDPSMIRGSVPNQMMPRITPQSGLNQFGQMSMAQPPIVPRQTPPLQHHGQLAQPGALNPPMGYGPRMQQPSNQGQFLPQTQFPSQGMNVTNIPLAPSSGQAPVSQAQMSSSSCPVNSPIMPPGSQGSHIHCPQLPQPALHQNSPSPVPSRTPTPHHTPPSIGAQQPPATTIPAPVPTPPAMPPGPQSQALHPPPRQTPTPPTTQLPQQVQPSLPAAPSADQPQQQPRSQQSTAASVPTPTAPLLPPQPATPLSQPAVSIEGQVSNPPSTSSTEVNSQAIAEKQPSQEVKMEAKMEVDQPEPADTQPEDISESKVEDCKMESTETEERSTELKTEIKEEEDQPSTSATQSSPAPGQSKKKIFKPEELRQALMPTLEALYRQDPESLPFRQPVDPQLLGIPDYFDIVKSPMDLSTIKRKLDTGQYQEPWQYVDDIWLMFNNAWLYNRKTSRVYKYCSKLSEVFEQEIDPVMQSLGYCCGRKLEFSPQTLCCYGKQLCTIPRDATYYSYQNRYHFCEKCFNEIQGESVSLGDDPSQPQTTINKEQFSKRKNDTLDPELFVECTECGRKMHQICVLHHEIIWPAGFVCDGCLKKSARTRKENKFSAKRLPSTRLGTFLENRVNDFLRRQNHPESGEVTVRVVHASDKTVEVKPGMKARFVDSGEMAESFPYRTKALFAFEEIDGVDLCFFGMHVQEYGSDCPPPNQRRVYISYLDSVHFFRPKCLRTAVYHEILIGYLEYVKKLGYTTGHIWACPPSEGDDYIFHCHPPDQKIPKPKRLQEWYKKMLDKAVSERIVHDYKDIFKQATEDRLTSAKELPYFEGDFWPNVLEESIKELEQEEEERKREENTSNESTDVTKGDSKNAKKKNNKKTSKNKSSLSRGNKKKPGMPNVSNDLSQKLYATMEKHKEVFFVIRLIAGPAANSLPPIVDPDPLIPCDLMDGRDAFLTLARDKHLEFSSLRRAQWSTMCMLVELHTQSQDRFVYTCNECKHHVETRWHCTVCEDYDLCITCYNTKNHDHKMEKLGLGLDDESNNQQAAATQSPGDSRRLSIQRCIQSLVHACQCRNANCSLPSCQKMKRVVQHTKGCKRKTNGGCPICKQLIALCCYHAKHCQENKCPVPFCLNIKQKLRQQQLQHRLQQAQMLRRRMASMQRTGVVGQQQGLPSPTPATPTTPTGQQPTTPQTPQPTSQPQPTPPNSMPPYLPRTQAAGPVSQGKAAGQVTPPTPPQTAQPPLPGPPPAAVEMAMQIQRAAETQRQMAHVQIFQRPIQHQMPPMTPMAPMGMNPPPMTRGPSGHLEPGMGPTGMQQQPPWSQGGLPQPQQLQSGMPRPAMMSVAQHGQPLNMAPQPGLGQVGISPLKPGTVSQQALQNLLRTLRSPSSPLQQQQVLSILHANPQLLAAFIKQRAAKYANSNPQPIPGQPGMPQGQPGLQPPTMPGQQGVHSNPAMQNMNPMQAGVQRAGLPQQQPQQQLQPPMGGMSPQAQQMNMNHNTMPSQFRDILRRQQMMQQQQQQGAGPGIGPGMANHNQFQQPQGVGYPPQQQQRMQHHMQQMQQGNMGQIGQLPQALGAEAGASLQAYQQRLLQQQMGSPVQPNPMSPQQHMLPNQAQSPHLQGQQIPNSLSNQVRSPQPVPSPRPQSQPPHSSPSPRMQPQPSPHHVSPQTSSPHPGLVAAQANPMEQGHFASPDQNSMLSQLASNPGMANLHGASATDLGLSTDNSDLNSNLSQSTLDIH

| Compound | Dmax [%] | DC50 [nM] |
| --- | --- | --- |
| Cc1cc(N2CCCc3nc(-c4ccc(C(=O)NCC#Cc5ccc6occ(C7CCC(=O)NC7=O)c6c5)nc4)ncc32)cc2c1n(C)c(=O)n2C (stereo not shown) [Example A146, N-(3-(3-(2,6-dioxo-piperidin-3-yl)benzofuran-5-yl)prop-2-yn-1-yl)-5-(5-(1,3,7-trimethyl-2-oxo-2,3-dihydro-1H-benzo[d]imidazol-5-yl)-5,6,7,8-tetrahydropyrido [3,2-d]pyrimidin-2-yl)picolinamide] | > 80 | 1 to 9.9 |
| Cc1cc(-c2ncc(N(C)c3cc4c(c(N5CCOCC5)n3)n(C)c(=O)n4C)cn2)cnc1C(=O)NCC#Cc1ccc2occ(C3CCC(=O)NC3=O)c2c1 (stereo not shown) [Example A147, 5-(5-((1,3-dimethyl-4-morpholino-2-oxo-2,3-dihydro-1H-imidazo[4,5-c]pyridin-6-yl)(methyl)amino)pyrimidin-2-yl)-N-(3-(3-(2,6-dioxopiperidin-3-yl)benzofuran-5-yl)prop-2-yn-1-yl)-3-methylpicolinamide] | < 20 | > 1000 |
| COc1cc(-c2cc3cccc(-c4ccc5c(c4)n(C)c(=O)n5C)c3cn2)cnc1C(=O)NCC#Cc1ccc2occ(C3CCC(=O)NC3=O)c2c1 (stereo not shown) [Example A148, 5-(8-(1,3-dimethyl-2-oxo-2,3-dihydro-1H-benzo[d]imidazol-5-yl)isoquinolin-3-yl)-N-(3-(3-(2,6-dioxo-piperidin-3-yl)benzofuran-5-yl)prop-2-yn-1-yl)-3-methoxypicolinamide] | > 80 | 1 to 9.9 |
| Cc1cc(-c2ncc(N(C)c3cc(C4CCOCC4)c4c(c3)n(C)c(=O)n4C)s2)cnc1C(=O)NCC#Cc1ccc2occ(C3CCC(=O)NC3=O)c2c1 (stereo not shown) [Example A149, 5-(5-((1,3-dimethyl-2-oxo-7-(tetrahydro-2H-pyran-4-yl)-2,3-dihydro-1H-benzo[d]imidazol-5-yl)(methyl)amino)thiazol-2-yl)-N-(3-(3-(2,6-dioxopiperidin-3-yl)benzofuran-5-yl)prop-2-yn-1-yl)-3-methylpicolinamide] | < 20 | > 1000 |
| CC(C)c1cc(N2CCCc3cc(-c4ccc(C(=O)NCC#Cc5ccc6occ(C7CCC(=O)NC7=O)c6c5)nc4)c(C(F)F)cc32)cc2c1n(C)c(=O)n2C (stereo not shown) [Example A151, 5-(7-(difluoromethyl)-1-(7-isopropyl-1,3-dimethyl-2-oxo-2,3-dihydro-1H-benzo[d]imidazol-5-yl)-1,2,3,4-tetrahydroquinolin-6-yl)-N-(3-(3-(2,6-dioxopiperidin-3-yl)benzofuran-5-yl)prop-2-yn-1-yl)picolinamide] | > 80 | 1 to 9.9 |
| Cn1c(=O)n(C)c2c(-n3cccn3)nc(-c3cccc4cc(-c5ccc(C(=O)NCC#Cc6ccc7occ(C8CCC(=O)NC8=O)c7c6)nc5)ncc34)cc21 (stereo not shown) [Example A152, 5-(8-(1,3-dimethyl-2-oxo-4-(1H-pyrazol-1-yl)-2,3-dihydro-1H-imidazo[4,5-c]pyridin-6-yl)iso-quinolin-3-yl)-N-(3-(3-(2,6-dioxopiperidin-3-yl)benzofuran-5-yl)prop-2-yn-1-yl)picolinamide] | 20 to 39 | 10 to 99 |
| Cc1cc(-c2ncc(N(C)c3cc(C(C)C)c4c(c3)n(C)c(=O)n4C)cc2F)cnc1C(=O)NCC#Cc1ccc2occ(C3CCC(=O)NC3=O)c2c1 (stereo not shown) [Example A153, N-(3-(3-(2,6-dioxo-piperidin-3-yl)benzofuran-5-yl)prop-2-yn-1-yl)-3-fluoro-5-((7-iso-propyl-1,3-dimethyl-2-oxo-2,3-dihydro-1H-benzo[d]imidazol-5-yl)(methyl)amino)-5′-methyl-[2,3′-bipyridine]-6′-carboxamide] | > 80 | 1 to 9.9 |
| Cc1cc(-c2ccc(N(C)c3cc(C(C)C)c4c(c3)n(C)c(=O)n4C)cn2)cnc1C(=O)NCC#Cc1cc(NC2CCC(=O)NC2=O)nn1C (stereo not shown) [Example A154, N-(3-(3-((2,6-dioxo-piperidin-3-yl)amino)-1-methyl-1H-pyrazol-5-yl)prop-2-yn-1-yl)-5-((7-isopropyl-1,3-dimethyl-2-oxo-2,3-dihydro-1H-benzo [d]imidazol-5-yl) (methyl)amino)-5′-methyl-[2,3′-bipyridine]-6′-carboxamide] | 60 to 79 | 10 to 99 |
| Cc1cc(-c2ncc(N(C)c3cc(C(C)C)c4c(c3)n(C)c(=O)n4C)cn2)cnc1C(=O)NCC#Cc1ccc2occ(C3CCC(=O)NC3=O)c2c1 (stereo not shown) [Example A156, N-(3-(3-(2,6-dioxo-piperidin-3-yl)benzofuran-5-yl)prop-2-yn-1-yl)-5-(5-((7-isopropyl-1,3-dimethyl-2-oxo-2,3-dihydro-1H-benzo [d]imidazol-5-yl)(methyl)amino)pyrimidin-2-yl)-3-methylpicolinamide] | > 80 | 1 to 9.9 |
| Cn1c(=O)n(C)c2ncc(-c3cccc4cc(-c5ccc(C(=O)NCC#Cc6ccc7occ(C8CCC(=O)NC8=O)c7c6)nc5)ncc34)cc21 (stereo not shown) [Example A157, 5-(8-(1,3-dimethyl-2-oxo-2,3-dihydro-1H-imidazo[4,5-b]pyridin-6-yl)isoquinolin-3-yl)-N-(3-(3-(2,6-dioxopiperidin-3-yl)benzofuran-5-yl)prop-2-yn-1-yl)picolinamide] | > 80 | 1 to 9.9 |
| CC(C)c1cc(-c2cccc3cc(-c4ccc(C(=O)NCC#Cc5ccc6occ(C7CCC(=O)NC7=O)c6n5)nc4)ncc23)cc2c1n(C)c(=O)n2C (stereo not shown) [Example A159, N-(3-(3-(2,6-dioxo-piperidin-3-yl)furo[3,2-b]pyridin-5-yl)prop-2-yn-1-yl)-5-(8-(7-isopropyl-1,3-dimethyl-2-oxo-2,3-dihydro-1H-benzo [d]imidazol-5-yl)isoquinolin-3-yl)picolinamide] | 40 to 59 | 10 to 99 |
| COc1cc(-c2cnc(C(=O)NCC#Cc3cc4c(C5CCC(=O)NC5=O)cccc4o3)c(C)c2)ncc1N(C)c1cc(C2CCOCC2)c2c(c1)n(C)c(=O)n2C (stereo not shown) [Example A166, 5-((1,3-dimethyl-2-oxo-7-(tetrahydro-2H-pyran-4-yl)-2,3-dihydro-1H-benzo[d]imidazol-5-yl)(methyl)amino)-N-(3-(4-(2,6-dioxopiperidin-3-yl)benzofuran-2-yl)prop-2-yn-1-yl)-4-methoxy-5′-methyl-[2,3′-bipyridine]-6′-carboxamide] | 20 to 39 | 1 to 9.9 |
| COc1nc(-c2cnc(C(=O)NCC#Cc3cc4c(C5CCC(=O)NC5=O)cccc4o3)c(C)c2)ncc1N(C)c1cc(C2CCOCC2)c2c(c1)n(C)c(=O)n2C (stereo not shown) [Example A167, 5-(5-((1,3-dimethyl-2-oxo-7-(tetrahydro-2H-pyran-4-yl)-2,3-dihydro-1H-benzo[d]imidazol-5-yl)(methyl)amino)-4-methoxypyrimidin-2-yl)-N-(3-(4-(2,6-dioxopiperidin-3-yl)benzofuran-2-yl)prop-2-yn-1-yl)-3-methylpicolinamide] | 60 to 79 | 1 to 9.9 |
| Cc1cc(-c2ncc(N(C)c3cc(C4CCOCC4)c4c(c3)n(C)c(=O)n4C)cn2)cnc1C(=O)NCC#Cc1cc2c(C3CCC(=O)NC3=O)nccc2o1 (stereo not shown) [Example A168, 5-(5-((1,3-dimethyl-2-oxo-7-(tetrahydro-2H-pyran-4-yl)-2,3-dihydro-1H-benzo[d]imidazol-5-yl)(methyl)amino)pyrimidin-2-yl)-N-(3-(4-(2,6-dioxopiperidin-3-yl)furo[3,2-c]pyridin-2-yl)prop-2-yn-1-yl)-3-methylpicolinamide] | > 80 | 1 to 9.9 |
